Details: Liquid, Vibrating tube method

c1ccncc1 [pyridine]
mass density [kg/m3]
Details	298.15 K	308.15 K	318.15 K	328.15 K
2130 kPa	979	969.2	959.3	949.2
4150 kPa	980.4	970.6	960.8	950.7
6180 kPa	981.8	972.1	962.3	952.3
8210 kPa	983.2	973.5	963.7	953.9
10230 kPa	984.5	974.9	965.2	955.4
11250 kPa	985.1	975.6	966	956.2
12260 kPa	985.8	976.3	966.7	956.9
14290 kPa	987.1	977.6	968.1	958.4
16310 kPa	988.3	978.9	969.5	959.9
18340 kPa	989.6	980.3	970.9	961.3
20370 kPa	990.8	981.6	972.2	962.8
22390 kPa	992.1	982.8	973.6	964.2
24420 kPa	993.3	984.1	974.9	965.6
26450 kPa	994.5	985.4	976.2	967
28470 kPa	995.7	986.7	977.6	968.3
29490 kPa	996.3	987.2	978.2	969
30500 kPa	996.9	987.8	978.8	969.7
32530 kPa	998	989	980.1	971
34550 kPa	999.1	990.3	981.4	972.3
36580 kPa	1000.3	991.5	982.6	973.6
38600 kPa	1001.4	992.6	983.8	975
39620 kPa	1002	993.2	984.4	975.6

Cc1ccccn1 [2-methylpyridine]
mass density [kg/m3]
Details	298.15 K	308.15 K	318.15 K	328.15 K
2130 kPa	941.2	932.1	922.8	913.5
4150 kPa	942.5	933.5	924.3	915.1
6180 kPa	943.9	935	925.8	916.7
8210 kPa	945.3	936.4	927.3	918.3
10230 kPa	946.6	937.8	928.8	919.8
11250 kPa	947.2	938.5	929.5	920.5
12260 kPa	947.9	939.1	930.2	921.3
14290 kPa	949.2	940.5	931.6	922.8
16310 kPa	950.5	941.9	933	924.3
18340 kPa	951.7	943.2	934.4	925.7
20370 kPa	953	944.5	935.8	927.2
22390 kPa	954.2	945.8	937.1	928.6
24420 kPa	955.4	947	938.5	930
26450 kPa	956.6	948.3	939.8	931.4
28470 kPa	957.7	949.5	941.1	932.7
29490 kPa	958.3	950.1	941.7	933.4
30500 kPa	958.9	950.8	942.4	934.1
32520 kPa	960.1	952	943.7	935.4
34550 kPa	961.2	953.2	944.9	936.8
36580 kPa	962.4	954.3	946.1	938
38600 kPa	963.5	955.5	947.3	939.3
39620 kPa	964	956.1	947.9	940

Cc1ccncc1 [4-methylpyridine]
mass density [kg/m3]
Details	298.15 K	308.15 K	318.15 K	328.15 K
2130 kPa	951.2	942.3	933.3	924.3
4150 kPa	952.5	943.7	934.7	925.8
6180 kPa	953.8	945	936.1	927.3
8210 kPa	955.1	946.4	937.4	928.7
10230 kPa	956.3	947.7	938.9	930.2
11250 kPa	956.9	948.3	939.5	930.9
12260 kPa	957.5	949	940.2	931.6
14290 kPa	958.8	950.3	941.6	933
16310 kPa	960	951.5	942.9	934.4
18340 kPa	961.2	952.8	944.2	935.7
20370 kPa	962.3	954	945.5	937.1
22390 kPa	963.5	955.2	946.7	938.4
24420 kPa	964.6	956.4	948	939.7
26450 kPa	965.8	957.6	949.2	941.1
28470 kPa	966.9	958.8	950.5	942.3
29490 kPa	967.4	959.3	951.1	943
30500 kPa	968	959.9	951.7	943.6
32530 kPa	969.1	961.1	952.9	944.8
34550 kPa	970.2	962.2	954	946.1
36580 kPa	971.3	963.3	955.2	947.3
38600 kPa	972.3	964.4	956.4	948.5
39620 kPa	972.8	965	957	949.1

Cc1cccnc1 [3-methylpyridine]
mass density [kg/m3]
Details	298.15 K	308.15 K	318.15 K	328.15 K
2130 kPa	953.2	944.3	935.3	926.3
4150 kPa	954.5	945.7	936.7	927.8
6180 kPa	955.8	947.1	938.1	929.2
8210 kPa	957.1	948.4	939.4	930.7
10230 kPa	958.4	949.7	940.9	932.2
11250 kPa	959	950.4	941.6	932.9
12260 kPa	959.6	951	942.3	933.6
14290 kPa	960.8	952.3	943.6	935
16310 kPa	962.1	953.6	944.9	936.4
18340 kPa	963.3	954.8	946.2	937.7
20370 kPa	964.4	956.1	947.5	939.1
22390 kPa	965.6	957.3	948.8	940.4
24420 kPa	966.7	958.5	950.1	941.7
26450 kPa	967.9	959.7	951.3	943.1
28470 kPa	969	960.9	952.6	944.4
29490 kPa	969.6	961.5	953.2	945
30500 kPa	970.1	962	953.8	945.7
32530 kPa	971.2	963.2	955	946.9
34550 kPa	972.3	964.3	956.2	948.2
36580 kPa	973.4	965.4	957.4	949.4
38600 kPa	974.5	966.5	958.5	950.6
39620 kPa	975	967.1	959.1	951.2

— the NIST ThermoML archive (doi:10.1016/j.jct.2009.07.006)
